Biological target: T1, human DHODH (Homo sapiens, UniProt Q02127)
T1 construct: Prof; M. Löffler, Marburg, Germany (gift)
Test: Inhibition assay of DHODH activity (spectrophotometric, 2,6-dichloroindophenol reduction)
Type: biochemical
Conditions: recombinant human DHODH; 50 mM TrisHCl, pH 8,0, 30°C; absorption at 600 nm
Experimental: 3. Inhibition Assay of DHODH activity
The standard assay mixture contained 50 µM decyclo ubichinone, 100 µM dihydroorotate, 60 µM 2,6-dichloroindophenol, as well as 20 mU DHODH The volume activity of the recombinant enzyme used was 30 U/ml. Measurements were conducted in 50 mM TrisHCl (150 mM KCI, 0,1% Triton X-100, pH 8,0) at 30°C in a final volume of 1 ml. The components were mixed, and the reaction was started by adding dihydroorotate. The course of reaction was followed by spectrophotometrically measuring the decrease in absorption at 600 nm for 2 min.
Inhibitory studies were conducted in a standard assay with additional variable amounts of inhibitor.
These investigations were carried out with recombinant human as well as with recombinant murine DHODH provided by Prof. M. Löffler, Marburg, Germany [M. Löffler, Chem. Biol. Interact. 124, (2000), 61-76].

T1 sequence (Q02127 whole entry): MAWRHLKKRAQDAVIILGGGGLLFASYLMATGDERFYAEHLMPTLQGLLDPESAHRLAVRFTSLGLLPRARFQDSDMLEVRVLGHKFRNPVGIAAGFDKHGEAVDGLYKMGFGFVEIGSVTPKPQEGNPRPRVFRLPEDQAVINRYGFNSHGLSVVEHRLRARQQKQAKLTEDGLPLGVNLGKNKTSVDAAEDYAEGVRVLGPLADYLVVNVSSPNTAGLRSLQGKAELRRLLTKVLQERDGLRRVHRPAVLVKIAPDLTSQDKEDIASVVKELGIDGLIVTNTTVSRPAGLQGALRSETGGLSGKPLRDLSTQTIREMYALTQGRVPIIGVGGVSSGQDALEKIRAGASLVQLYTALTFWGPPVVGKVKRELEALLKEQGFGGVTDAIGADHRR

Compound | IC50
COc1cccc(-c2ccc(NC(=O)C3=C(C(=O)O)CCC3O)c(F)c2)c1 (stereo not drawn) [Example 17, 2-(3-Fluoro-3'-methoxy-biphenyl-4-ylcarbamoyl)-3-hydroxy-cyclopent-1-enecarboxylic acid] | < 1000 nM
O=C(O)C1=C(C(=O)Nc2c(F)c(F)c(-c3cccc(OC(F)(F)F)c3)c(F)c2F)C(O)CC1 (stereo not drawn) [Example 5, 3-Hydroxy-2-(2,3,5,6-tetrafluoro-3'-trifluoromethoxy-biphenyl-4-ylcarbamoyl)-cyclopent-1-enecarboxylic acid] | < 1000 nM
O=C(O)C1=C(C(=O)Nc2c(F)cc(-c3ccccc3Cl)cc2F)CCC1O (stereo not drawn) [Example 16, 2-(2'-Chloro-3,5-difluoro-biphenyl-4-ylcarbamoyl)-5-hydroxy-cyclopent-1-enecarboxylic acid] | < 1000 nM
COc1cccc(-c2ccc(NC(=O)C3=C(C(=O)O)CCC3C(=O)O)c(F)c2)c1 (stereo not drawn) [Example 2, 2-(3-Fluoro-3'-methoxy-biphenyl-4-ylcarbamoyl)-cyclopent-1-ene-1,3-dicarboxylic acid] | > 5000 nM
O=C(O)C1=C(C(=O)Nc2c(F)cc(-c3ccccc3Cl)cc2F)C(O)CC1 (stereo not drawn) [Example 15, 2-(2'-Chloro-3,5-difluoro-biphenyl-4-ylcarbamoyl)-3-hydroxy-cyclopent-1-enecarboxylic acid] | < 1000 nM
COc1cccc(-c2ccc(NC(=O)C3=C(C(=O)O)C(C(=O)O)CC3)c(F)c2)c1 (stereo not drawn) [Example 1, 3-(3-Fluoro-3'-methoxy-biphenyl-4-ylcarbamoyl)-cyclopent-2-ene-1,2-dicarboxylic acid] | > 5000 nM
O=C(O)C1=C(C(=O)Nc2c(F)c(F)c(-c3cccc(OC(F)(F)F)c3)c(F)c2F)CCC1O (stereo not drawn) [Example 6, 5-Hydroxy-2-(2,3,5,6-tetrafluoro-3'-trifluoromethoxy-biphenyl-4-ylcarbamoyl)-cyclopent-1-enecarboxylic acid] | < 1000 nM
COc1ccccc1-c1ccc(NC(=O)C2=C(C(=O)O)C(O)CC2)cc1Cl (stereo not drawn) [Example 14, 2-(2-Chloro-2'-methoxy-biphenyl-4-ylcarbamoyl)-5-hydroxy-cyclopent-1-enecarboxylic acid] | < 1000 nM
CCOc1cccc(-c2cc(F)c(NC(=O)C3=C(C(=O)O)CCC3O)c(F)c2)c1 (stereo not drawn) [Example 7, 2-(3'-Ethoxy-3,5-difluoro-biphenyl-4-ylcarbamoyl)-3-hydroxy-cyclopent-1-enecarboxylic acid] | < 1000 nM
O=C(O)C1=C(C(=O)Nc2c(F)cc(-c3ccccc3F)cc2F)C(O)CC1 (stereo not drawn) [Example 11, 3-Hydroxy-2-(3,5,2'-trifluoro-biphenyl-4-ylcarbamoyl)-cyclopent-1-enecarboxylic acid] | < 1000 nM
COC(=O)C1=C(C(=O)Nc2ccc(-c3cccc(OC)c3)cc2F)CCC1 [Example 3, 2-(3-Fluoro-3'-methoxy-biphenyl-4-ylcarbamoyl)-cyclopent-1-enecarboxylic acid methyl ester] | > 5000 nM
CCOc1cccc(-c2cc(F)c(NC(=O)C3=C(C(=O)O)C(O)CC3)c(F)c2)c1 (stereo not drawn) [Example 8, 2-(3'-Ethoxy-3,5-difluoro-biphenyl-4-ylcarbamoyl)-5-hydroxy-cyclopent-1-enecarboxylic acid] | < 1000 nM
2-(1',3'di-methoxy-3,5-difluoro-biphenyl-4-ylcarbamoyl)-3-hydroxy-cyclopent-1-enecarboxylic acid [Example 9] | < 5000 nM
2-(1',3'di-methoxy-3,5-difluoro-biphenyl-4-ylcarbamoyl)-5-hydroxy-cyclopent-1-enecarboxylic acid [Example 10] | < 5000 nM
COc1ccccc1-c1ccc(NC(=O)C2=C(C(=O)O)CCC2O)cc1Cl (stereo not drawn) [Example 13, 2-(2-Chloro-2'-methoxy-biphenyl-4-ylcarbamoyl)-3-hydroxy-cyclopent-1-enecarboxylic acid] | < 1000 nM
